# Earlier results, collected in PubChem BioAssay AID1259409 (Chemical Carcinogenesis Research Information System (CCRIS), 2018).
# Tested on: rodent chemically induced tumor inhibition, incidence and multiplicity
# Assay: CCRIS tumor inhibitor studies
smiles,measurement,setting,value
O=P(O)(O)OC1C(OP(=O)(O)O)C(OP(=O)(O)O)C(OP(=O)(O)O)C(OP(=O)(O)O)C1OP(=O)(O)O (stereo not given),"tumour outcome (control, treated, inhibition, significance)","Carcinogen: 2,2'-DIHYDROXY-DI-N-PROPYLNITROSAMINE, 53609-64-6, N-ETHYL-N-HYDROXYETHYLNITROSAMINE, 13147-25-6, 3,2'-DIMETHYL-4-AMINO-, Carcinogen: 2,2'-DIHYDROXY-DI-N-PROPYLNITROSAMINE, 53609-64-6, N-ETHYL-N-HYDROXYETHYLNITROSAMINE, 13147-25-6, 3,2'-DIMETHYL-4-AMINO-, Dose [Inhibitor]: 0, 2% IN DIET FOR 32 WK BEGINNING 1 WK POST CARCINOGEN TREATMENT (STUDY DURATION: 36 WK), Route [Inhibitor]: ORAL, Species: RAT, Strain/Sex: F344/MALE, Target Tissue: Type of Lesion: LUNG: CARCINOMA, Dose [Carcinogen]: 1000 MG/KG BW DHPN TWICE, 1500 MG/KG BW EHEN TWICE, 75 MG/KG BW 3 TIMES ADMINISTERED OVER FIRST 3 WK, Promoter: NONE USED","1/14 (7%), 3/12 (25%), -257%, not significant"
same,"tumour outcome (control, treated, inhibition, significance)","Carcinogen: 2,2'-DIHYDROXY-DI-N-PROPYLNITROSAMINE, 53609-64-6, N-ETHYL-N-HYDROXYETHYLNITROSAMINE, 13147-25-6, 3,2'-DIMETHYL-4-AMINO-, Carcinogen: 2,2'-DIHYDROXY-DI-N-PROPYLNITROSAMINE, 53609-64-6, N-ETHYL-N-HYDROXYETHYLNITROSAMINE, 13147-25-6, 3,2'-DIMETHYL-4-AMINO-, Dose [Inhibitor]: 0, 2% IN DIET FOR 32 WK BEGINNING 1 WK POST CARCINOGEN TREATMENT (STUDY DURATION: 36 WK), Route [Inhibitor]: ORAL, Species: RAT, Strain/Sex: F344/MALE, Target Tissue: Type of Lesion: THYROID GLAND: ADENOMA, Dose [Carcinogen]: 1000 MG/KG BW DHPN TWICE, 1500 MG/KG BW EHEN TWICE, 75 MG/KG BW 3 TIMES ADMINISTERED OVER FIRST 3 WK, Promoter: NONE USED","3/14 (21%), 3/12 (25%), -19%, not significant"
same,"tumour outcome (control, treated, inhibition, significance)","Carcinogen: 2,2'-DIHYDROXY-DI-N-PROPYLNITROSAMINE, 53609-64-6, N-ETHYL-N-HYDROXYETHYLNITROSAMINE, 13147-25-6, 3,2'-DIMETHYL-4-AMINO-, Carcinogen: 2,2'-DIHYDROXY-DI-N-PROPYLNITROSAMINE, 53609-64-6, N-ETHYL-N-HYDROXYETHYLNITROSAMINE, 13147-25-6, 3,2'-DIMETHYL-4-AMINO-, Dose [Inhibitor]: 0, 2% IN DIET FOR 32 WK BEGINNING 1 WK POST CARCINOGEN TREATMENT (STUDY DURATION: 36 WK), Route [Inhibitor]: ORAL, Species: RAT, Strain/Sex: F344/MALE, Target Tissue: Type of Lesion: URINARY BLADDER: CARCINOMA, Dose [Carcinogen]: 1000 MG/KG BW DHPN TWICE, 1500 MG/KG BW EHEN TWICE, 75 MG/KG BW 3 TIMES ADMINISTERED OVER FIRST 3 WK, Promoter: NONE USED","1/14 (7%), 2/12 (17%), -143%, not significant"
same,outcome,"Carcinogen: 2,2'-DIHYDROXY-DI-N-PROPYLNITROSAMINE, 53609-64-6, N-ETHYL-N-HYDROXYETHYLNITROSAMINE, 13147-25-6, 3,2'-DIMETHYL-4-AMINO-, Carcinogen: 2,2'-DIHYDROXY-DI-N-PROPYLNITROSAMINE, 53609-64-6, N-ETHYL-N-HYDROXYETHYLNITROSAMINE, 13147-25-6, 3,2'-DIMETHYL-4-AMINO-, Dose [Inhibitor]: 0, 2% IN DIET FOR 32 WK BEGINNING 1 WK POST CARCINOGEN TREATMENT (STUDY DURATION: 36 WK), Route [Inhibitor]: ORAL, Species: RAT, Strain/Sex: F344/MALE, Target Tissue: Type of Lesion: URINARY BLADDER: PAPILLOMA, Dose [Carcinogen]: 1000 MG/KG BW DHPN TWICE, 1500 MG/KG BW EHEN TWICE, 75 MG/KG BW 3 TIMES ADMINISTERED OVER FIRST 3 WK, Promoter: NONE USED","0/14 (0%), 6/12 (50%), -100%, p<0.01"
same,"tumour outcome (control, treated, inhibition, significance)","Carcinogen: 2,2'-DIHYDROXY-DI-N-PROPYLNITROSAMINE, 53609-64-6, N-ETHYL-N-HYDROXYETHYLNITROSAMINE, 13147-25-6, 3,2'-DIMETHYL-4-AMINO-, Carcinogen: 2,2'-DIHYDROXY-DI-N-PROPYLNITROSAMINE, 53609-64-6, N-ETHYL-N-HYDROXYETHYLNITROSAMINE, 13147-25-6, 3,2'-DIMETHYL-4-AMINO-, Dose [Inhibitor]: 0, 2% IN DIET FOR 32 WK BEGINNING 1 WK POST CARCINOGEN TREATMENT (STUDY DURATION: 36 WK), Route [Inhibitor]: ORAL, Species: RAT, Strain/Sex: F344/RAT, Target Tissue: Type of Lesion: LARGE INTESTINE: ADENOMA, Dose [Carcinogen]: 1000 MG/KG BW DHPN TWICE, 1500 MG/KG BW EHEN TWICE, 75 MG/KG BW 3 TIMES ADMINISTERED OVER FIRST 3 WK, Promoter: NONE USED","7/14 (50%), 5/12 (42%), 16%, not significant"
same,"tumour outcome (control, treated, inhibition, significance)","Carcinogen: 7,12-DIMETHYLBENZ(A)ANTHRACENE, 57-97-6, Dose [Inhibitor]: 0, 1 MG IN 100 µL ACETONE IMMEDIATELY AFTER CARCINOGEN DOSE 2/WK FOR 30 WK (STUDY DURATION: 30 WK), Route [Inhibitor]: DERMAL, Species: MOUSE, Strain/Sex: SWISS/FEMALE, Target Tissue: Type of Lesion: SKIN: TUMOR, Dose [Carcinogen]: 5 UG IN 100 µL ACETONE 2/WK FOR 30 WK","8/8 (100%), 4/14 (26%), 74%, not calculated"
same,"tumour outcome (control, treated, inhibition, significance)","Carcinogen: 7,12-DIMETHYLBENZ(A)ANTHRACENE, 57-97-6, Dose [Inhibitor]: 0, 5 MG IN 100 µL ACETONE IMMEDIATELY AFTER CARCINOGEN DOSE 2/WK FOR 30 WK (STUDY DURATION: 30 WK), Route [Inhibitor]: DERMAL, Species: MOUSE, Strain/Sex: SWISS/FEMALE, Target Tissue: Type of Lesion: SKIN: TUMOR, Dose [Carcinogen]: 5 UG IN 100 µL ACETONE 2/WK FOR 30 WK","8/8 (100%), 1/14 (6.6%), 93%, not calculated"
same,"tumour outcome (control, treated, inhibition, significance)","Carcinogen: 7,12-DIMETHYLBENZ(A)ANTHRACENE, 57-97-6, Dose [Inhibitor]: 0, 100 UG IN 100 µL ACETONE IMMEDIATELY AFTER CARCINOGEN DOSE 2/WK FOR 30 WK (STUDY DURATION: 30 WK), Route [Inhibitor]: DERMAL, Species: MOUSE, Strain/Sex: SWISS/FEMALE, Target Tissue: Type of Lesion: SKIN: TUMOR, Dose [Carcinogen]: 5 UG IN 100 µL ACETONE 2/WK FOR 30 WK","8/8 (100%), 5/13 (40%), 60%, not calculated"
same,"tumour outcome (control, treated, inhibition, significance)","Carcinogen: 7,12-DIMETHYLBENZ[A]ANTHRACENE [57-97-6], Dose [Inhibitor]: 2% IN DIET FOR 35 WK BEGINNING 1 WK POST LAST CARCINOGEN DOSE (STUDY DURATION: 35 WK), Route [Inhibitor]: ORAL, Species: RAT, Strain/Sex: SPRAGUE-DAWLEY/FEMALE, Target Tissue: Type of Lesion: MAMMARY GLAND: CARCINOMA, Dose [Carcinogen]: 50 MG/KG BW ONCE (STUDY DURATION: 36 WK), Promoter: NONE","14/15 (93%), 14/15 (93%), 0%, not significant"
same,"tumour outcome (control, treated, inhibition, significance)","Carcinogen: 7,12-DIMETHYLBENZ[A]ANTHRACENE [57-97-6], Dose [Inhibitor]: 2% IN DIET FOR 35 WK BEGINNING 1 WK POST LAST CARCINOGEN DOSE (STUDY DURATION: 35 WK), Route [Inhibitor]: ORAL, Species: RAT, Strain/Sex: SPRAGUE-DAWLEY/FEMALE, Target Tissue: Type of Lesion: MAMMARY GLAND: FIBROADENOMA, Dose [Carcinogen]: 50 MG/KG BW ONCE (STUDY DURATION: 36 WK), Promoter: NONE","3/15 (20%), 4/15 (27%), -35%, not significant"
